From US4160015A, “2,4,6-Triiodobenzoic acid derivatives and their use as x-ray contrast agents” (priority 1978, dated 1979)
Counter-ions that a name gives are not always drawn.

Legend:
[1] = water solubility; type: physicochemical; details: for water solubility: 25° C.
[2] = crystal formation on standing (sodium salt, five months at 5°-10° C.); type: physicochemical; details: standing for over five months at 5°-10° C.
[3] = Intracerebral Toxicity in Mice; details: mouse, in vivo, fixed volumes of various concentrations, seven day observation, read-out: LD50 of N-Methylglucamine Salt, Intracerebral (Mice)
Method: (§1) Toxicity evaluations were carried out on solutions of the N-methylglucaminesalt of 5-gluconamido-2,4,6-triiodo-N-methylisophthalamic acid by three different techniques and on solutions of the N-methylglucamine salt of 3-acetamido-2,4,6-triiodo-5-trishydroxymethylacetamido-benzoic acid by two different techniques. The techniques utilized are outlined below.
Swiss Albino mice (Charles River) were used. Fixed volumes of solutions of various concentrations of the iodinated compounds were injected intracerebrally via a 27 gauge needle, (1/4 inch length) according to the method of Haley, et al. (Br. J. of Pharmac. 12:12-15, 1957). The animals were observed immediately after injections and daily throughout a seven day observation period. The LD50 values were calculated by the method of Litchfield and Wilcoxon (J. of Pharmac. and Exptl. Therap. 96:99-113, 1949).

[4] = Acute Intravenous Toxicity Studies in Mice; details: mouse, in vivo, lateral tail vein, solutions containing 28.27% iodine, 1 ml./min., seven day observation, read-out: LD50 of N-Methylglucamine Salt, I.V. (Mice)
Method: as §1
Swiss Albino mice (Charles River) were dosed in the lateral tail vein with solutions of the iodinated compound containing 28.27% of iodine, injected at the rate of 1 ml./min. […] The LD50 values were calculated by the method of Litchfield and Wilcoxon (J. of Pharmac. and Exptl. Therap. 96:99-113, 1949).

[5] = Intracisternal Toxicity in Rats; parameters: species or system Sprague Dawley (Carworth) rats; details: rat, in vivo, two day observation, read-out: LD50 of N-Methylglucamine Salt, Intracisternal (Rats)
Method: as §1
Sprague Dawley (Carworth) rats were used. The method used is a variation of the procedure outlined by Melartin et al. (Invest. Rad. 5:13-21, 1970). After dosing, the animals were housed individually, and observed for immediate reactions and periodically for a two day observation period. The LD50 values were calculated according to the method of Litchfield and Wilcoxon, (J. of Pharmac. and Exptl. Therap. 96:99-115, 1949).

SMILES	water solubility [1]	LD50 at 168 h [3]	LD50 at 168 h [4]	also measured
CNC(=O)c1c(I)c(NC(=O)[C@H](O)[C@@H](O)[C@H](O)[C@H](O)CO)c(I)c(C(=O)O)c1I [Example 2, Sodium 5-Gluconamido-2,4,6-triiodo-N-methylisophthalamate]	–	–	–	solubility ([1]; water, read-out: solubility of the sodium salt): > 1010 mg/mL; crystals formed after standing [2]: no crystals formed
CC(=O)Nc1c(I)c(NC(=O)C(CO)(CO)CO)c(I)c(C(=O)O)c1I [Example 3, 3-Acetamido-2,4,6-triiodo-5-(trishydroxymethyl)acetamido-benzoic Acid]	2-2.5 % w/v	–	–	–
CC(=O)Nc1c(I)c(NC(=O)C(CO)(CO)CO)c(I)c(C(=O)O)c1I [Example 4, sodium salt of 3-acetamido-2,4,6-triiodo-5-trishydroxymethylacetamido-benzoic acid]	63.5-66 % w/v	–	–	–
CC(=O)Nc1c(I)c(NC(=O)C(CO)(CO)CO)c(I)c(C(=O)O)c1I [N-methylglucamine salt of 3-acetamido-2,4,6-triiodo-5-trishydroxymethylacetamido-benzoic acid]	–	150 mg/kg	6000 mg/kg	–
CNC(=O)c1c(I)c(NC(=O)[C@H](O)[C@@H](O)[C@H](O)[C@H](O)CO)c(I)c(C(=O)O)c1I [N-methylglucaminesalt of 5-gluconamido-2,4,6-triiodo-N-methylisophthalamic acid]	–	620 mg/kg	5200 mg/kg	LD50 at 48 h [5]: 355 mg/kg
